Reference: PubChem BioAssay (NCI)
“And” between values parts separate entries of the source, which are not always exact repeats. Identical values can stand only once.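 Method: 48-hour compound exposure of cells in 96-well plates, five concentrations, linear interpolation of endpoints. At the GI50, growth is halved. TGI: total growth inhibition.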

Key:
Assay in all cases: NCI-60 cell line screen, 48 h
DU-145 prostate = test system: DU-145 prostate
HOP-62 NSCLC = test system: HOP-62 NSCLC
NCI-H522 lung = test system: NCI-H522 lung
NCI/ADR-RES ovarian = test system: NCI/ADR-RES ovarian
KM12 colon = test system: KM12 colon
U251 CNS = test system: U251 CNS
TK-10 renal = test system: TK-10 renal
HS 578T breast = test system: HS 578T breast
SW-620 colon = test system: SW-620 colon
PC-3 prostate = test system: PC-3 prostate

Structure (SMILES)	GI50 (DU-145 prostate)	TGI (DU-145 prostate) [µM]	GI50 (HOP-62 NSCLC)	TGI (HOP-62 NSCLC) [µM]	GI50 (NCI-H522 lung)	TGI (NCI-H522 lung) [µM]	GI50 (NCI/ADR-RES ovarian)	TGI (NCI/ADR-RES ovarian) [µM]	GI50 (KM12 colon)	TGI (KM12 colon) [µM]	GI50 (U251 CNS)	TGI (U251 CNS) [µM]	GI50 (TK-10 renal) [µM]	TGI (TK-10 renal) [µM]	GI50 (HS 578T breast)	TGI (HS 578T breast) [µM]	GI50 (SW-620 colon)	TGI (SW-620 colon) [µM]	GI50 (PC-3 prostate)	TGI (PC-3 prostate) [µM]
N#Cc1cc2c(=S)[nH]c(=S)[nH]c2nc1SCc1ccccc1	82.9 µM	> 100	63.2 µM	> 100	> 100 µM	> 100	28.1 µM	> 100	29.2 µM	> 100	29.5 µM	> 100	12.3	65	39.6 µM	> 100	48.9 µM	> 100	23.6 µM	> 100
CCN(CC)CCOc1ccccc1-n1c(C)ccc1-c1ccccc1	17.3 µM	32.3	17 µM	31.1	11.6 µM	28.3	13.9 µM	29.9	17.2 µM	32.5	13.4 µM	27.4	14.5	29.2	12.8 µM	35.9	15.2 µM	31.8	12.4 µM	29.2
C=C(C)[C@@H]1CC[C@]2(COC(=O)c3ccccc3C(=O)O)CC[C@]3(C)[C@H](CC[C@@H]4[C@@]5(C)CC[C@H](OC(=O)c6ccccc6C(=O)O)C(C)(C)[C@@H]5CC[C@]43C)[C@@H]12	32.8 µM	> 100	21.8 µM	54.2	22.8 µM	96.9	67.6 µM	> 100	8.47 µM	> 100	23.1 µM	77.7	24.8	63.3	26.4 µM	> 100	97.7 µM	> 100	34.6 µM	> 100
NC(=O)/C=C/c1c[nH]c2nccnc12	–	> 34	–	19.3	–	45.9	–	> 29.1	–	> 46.3	–	> 100	–	6.26	–	4.6	–	10.5	–	26.1
O=C(Cc1ccc(-c2ccc(OCCN3CCOCC3)cc2)cn1)NCc1ccccc1	0.0324 µM and 0.0387 µM	–	0.0372 µM and 0.066 µM	> 88.4	0.0223 µM and 0.0242 µM	0.0831	0.0334 µM and 0.0341 µM	> 100	0.032 µM and 0.0387 µM	> 7.88	0.0417 µM and 0.0377 µM	> 100	–	> 100	0.0381 µM and 0.0284 µM	> 100	0.0376 µM and 0.0388 µM	> 100	0.0446 µM and 0.0456 µM	> 100
COc1ccc2c3c1OC1C4(CCC5C(C2)N(CC2CC2)CCC351)OCCO4 (stereo not drawn)	–	> 100	–	> 100	–	> 100	–	> 100	–	> 100	–	> 100	–	> 100	–	> 100	–	> 100	–	> 100
CCN1C(=O)N[C@H]2[C@@H]3NC(=O)c4ccc(Cl)n4[C@@H]3C[C@]21O	0.615 µM	19.3	0.466 µM	3.71	0.288 µM	1.76	12 µM	89.8	1.06 µM	33.7	0.329 µM	13.5	1.66	12.5	0.578 µM	13.2	0.511 µM	> 100	1.68 µM	11.2
COc1cc(NC(=O)c2cc3ccccc3cc2O)c(OC)cc1Cl	2.67 µM	8.07	1.44 µM	4.7	1.89 µM	9.41	1.99 µM	6.03	2.52 µM	7.25	1.87 µM	5.23	3.64	7.7	2.11 µM	8.85	3.08 µM	> 34.5	1.56 µM	4.46
O=C1c2ccccc2-c2c1c1ccc([N+](=O)[O-])cc1c(=O)n2CCN1CCOCC1	61 µM	> 100	52 µM	> 100	> 100 µM	> 100	> 100 µM	> 100	> 100 µM	> 100	49.6 µM	> 100	> 100	> 100	> 100 µM	> 100	40.5 µM	> 100	> 100 µM	> 100
CCN(CC)CCC(CNc1c(C)cnc2cc(Cl)ccc12)c1ccc(Cl)c(Cl)c1 (stereo not drawn)	9.2 µM	22	4.69 µM	17.6	3.78 µM	16	6.33 µM	21.3	4.34 µM	17.7	2.27 µM	5.43	5.03	17.1	4.26 µM	23.1	2.14 µM	7	4.1 µM	16.2
